18 compounds from patent US8580794B2 (AbbVie Inc., priority 2009, dated 2013) can be followed below.

The assay has as its target GST-Bc1-2 (Homo sapiens, UniProt P10415). Kind of assay: Time Resolved-Fluorescence Resonance Energy Transfer (TR-FRET) Bcl-2 binding assay with F-Bak peptide probe. Conditions: GST-Bcl-2 1 nM, F-Bak probe 100 nM, Tb-anti-GST 1 nM; '<' = below limit of detection; read-out: TR-FRET Bcl-2 Binding Ki. (In TR-FRET formats the signal depends on donor and acceptor labels being close together.)

GST-Bc1-2, sequence (P10415 whole entry): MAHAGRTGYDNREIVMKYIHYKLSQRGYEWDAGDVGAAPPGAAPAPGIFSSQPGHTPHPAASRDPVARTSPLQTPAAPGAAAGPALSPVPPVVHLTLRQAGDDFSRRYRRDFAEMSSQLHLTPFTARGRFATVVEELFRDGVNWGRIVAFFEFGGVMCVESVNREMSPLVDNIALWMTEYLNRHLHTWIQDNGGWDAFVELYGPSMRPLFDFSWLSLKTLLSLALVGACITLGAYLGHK

The Ki is a measure of affinity in units of concentration, obtained from inhibition or displacement. `CC1(C)CCC(CN2CCN(c3ccc(C(=O)NS(=O)(=O)c4ccc(NC5CCN(C6COC6)CC5)c([N+](=O)[O-])c4)c(Oc4cnc5[nH]ccc5c4)c3)CC2)=C(c2ccc(Cl)cc2)C1` [Example 139, 4-(4-{[2-(4-chlorophenyl)-4,4-dimethylcyclohex-1-en-1-yl]methyl}piperazin-1-yl)-N-({3-nitro-4-[(1-oxetan-3-ylpiperidin-4-yl)amino]phenyl}sulfonyl)-2-(1H-pyrrolo[2,3-b]pyridin-5-yloxy)benzamide]: the Ki was below 0.01 nM. Under `CC1(C)CCC(CN2CCN(c3ccc(C(=O)NS(=O)(=O)c4ccc(NC5CCN(C6CCC6)CC5)c([N+](=O)[O-])c4)c(Oc4cnc5[nH]ccc5c4)c3)CC2)=C(c2ccc(Cl)cc2)C1` [Example 140, 4-(4-{[2-(4-chlorophenyl)-4,4-dimethylcyclohex-1-en-1-yl]methyl}piperazin-1-yl)-N-({4-[(1-cyclobutylpiperidin-4-yl)amino]-3-nitrophenyl}sulfonyl)-2-(1H-pyrrolo[2,3-b]pyridin-5-yloxy)benzamide] stands below 0.01 nM; under `CC1(C)CCC(CN2CCN(c3ccc(C(=O)NS(=O)(=O)c4ccc(NC5CCN(C6CCOC(C)(C)C6)CC5)c([N+](=O)[O-])c4)c(Oc4cnc5[nH]ccc5c4)c3)CC2)=C(c2ccc(Cl)cc2)C1` (stereo not drawn) [Example 141, 4-(4-{[2-(4-chlorophenyl)-4,4-dimethylcyclohex-1-en-1-yl]methyl}piperazin-1-yl)-N-[(4-{[1-(2,2-dimethyltetrahydro-2H-pyran-4-yl)piperidin-4-yl]amino}-3-nitrophenyl)sulfonyl]-2-(1H-pyrrolo[2,3-b]pyridin-5-yloxy)benzamide], below 0.01 nM; under `CC1(C)CCC(CN2CCN(c3ccc(C(=O)NS(=O)(=O)c4ccc(N[C@H]5CCN(C6CC6)C5)c([N+](=O)[O-])c4)c(Oc4cnc5[nH]ccc5c4)c3)CC2)=C(c2ccc(Cl)cc2)C1` [Example 142, 4-(4-{[2-(4-chlorophenyl)-4,4-dimethylcyclohex-1-en-1-yl]methyl}piperazin-1-yl)-N-[(4-{[(3S)-1-cyclopropylpyrrolidin-3-yl]amino}-3-nitrophenyl)sulfonyl]-2-(1H-pyrrolo[2,3-b]pyridin-5-yloxy)benzamide], 0.13 nM. For `CC1(C)CCC(CN2CCN(c3ccc(C(=O)NS(=O)(=O)c4ccc(NC5CCN(C6CCOC6)CC5)c([N+](=O)[O-])c4)c(Oc4cnc5[nH]ccc5c4)c3)CC2)=C(c2ccc(Cl)cc2)C1` (stereo not drawn) [Example 143, 4-(4-{[2-(4-chlorophenyl)-4,4-dimethylcyclohex-1-en-1-yl]methyl}piperazin-1-yl)-N-({3-nitro-4-[(1-tetrahydrofuran-3-ylpiperidin-4-yl)amino]phenyl}sulfonyl)-2-(1H-pyrrolo[2,3-b]pyridin-5-yloxy)benzamide], the Ki was below 0.01 nM. Under `CC1(C)CCC(CN2CCN(c3ccc(C(=O)NS(=O)(=O)c4ccc(N[C@@H]5CCN(C6CC6)C5)c([N+](=O)[O-])c4)c(Oc4cnc5[nH]ccc5c4)c3)CC2)=C(c2ccc(Cl)cc2)C1` [Example 144, 4-(4-{[2-(4-chlorophenyl)-4,4-dimethylcyclohex-1-en-1-yl]methyl}piperazin-1-yl)-N-[(4-{[(3R)-1-cyclopropylpyrrolidin-3-yl]amino}-3-nitrophenyl)sulfonyl]-2-(1H-pyrrolo[2,3-b]pyridin-5-yloxy)benzamide] stands below 0.01 nM. In the case of `CC1(C)CCC(CN2CCN(c3ccc(C(=O)NS(=O)(=O)c4ccc(NC[C@@H]5CCN(C6CCOCC6)C5)c([N+](=O)[O-])c4)c(Oc4cnc5[nH]ccc5c4)c3)CC2)=C(c2ccc(Cl)cc2)C1` [Example 145, 4-(4-{[2-(4-chlorophenyl)-4,4-dimethylcyclohex-1-en-1-yl]methyl}piperazin-1-yl)-N-{[3-nitro-4-({[(3S)-1-tetrahydro-2H-pyran-4-ylpyrrolidin-3-yl]methyl}amino)phenyl]sulfonyl}-2-(1H-pyrrolo[2,3-b]pyridin-5-yloxy)benzamide], the inhibition constant (Ki) is below 0.01 nM.

In the case of `CC(C)(CO)CNc1ccc(S(=O)(=O)NC(=O)c2ccc(N3CCN(CC4=C(c5ccc(Cl)cc5)CC(C)(C)CC4)CC3)cc2Oc2cnc3[nH]ccc3c2)cc1[N+](=O)[O-]` [Example 146, 4-(4-{[2-(4-chlorophenyl)-4,4-dimethylcyclohex-1-en-1-yl]methyl}piperazin-1-yl)-N-({4-[(3-hydroxy-2,2-dimethylpropyl)amino]-3-nitrophenyl}sulfonyl)-2-(1H-pyrrolo[2,3-b]pyridin-5-yloxy)benzamide], the Ki is below 0.01 nM.

Consider `CC1(C)CCC(CN2CCN(c3ccc(C(=O)NS(=O)(=O)c4ccc(NCC5CCCN(S(C)(=O)=O)C5)c([N+](=O)[O-])c4)c(Oc4cnc5[nH]ccc5c4)c3)CC2)=C(c2ccc(Cl)cc2)C1` (stereo not drawn) [Example 147, 4-(4-{[2-(4-chlorophenyl)-4,4-dimethylcyclohex-1-en-1-yl]methyl}piperazin-1-yl)-N-{[4-({[1-(methylsulfonyl)piperidin-3-yl]methyl}amino)-3-nitrophenyl]sulfonyl}-2-(1H-pyrrolo[2,3-b]pyridin-5-yloxy)benzamide], for which the inhibition constant Ki is below 0.01 nM. The result for `CC(=O)N1CCCC(CNc2ccc(S(=O)(=O)NC(=O)c3ccc(N4CCN(CC5=C(c6ccc(Cl)cc6)CC(C)(C)CC5)CC4)cc3Oc3cnc4[nH]ccc4c3)cc2[N+](=O)[O-])C1` (stereo not drawn) [Example 148, N-[(4-{[(1-acetylpiperidin-3-yl)methyl]amino}-3-nitrophenyl)sulfonyl]-4-(4-{[2-(4-chlorophenyl)-4,4-dimethylcyclohex-1-en-1-yl]methyl}piperazin-1-yl)-2-(1H-pyrrolo[2,3-b]pyridin-5-yloxy)benzamide] reads below 0.01 nM; that for `CC1(C)CCC(CN2CCN(c3ccc(C(=O)NS(=O)(=O)c4ccc(N[C@@H]5CCN(S(C)(=O)=O)C5)c([N+](=O)[O-])c4)c(Oc4cnc5[nH]ccc5c4)c3)CC2)=C(c2ccc(Cl)cc2)C1` [Example 149, 4-(4-{[2-(4-chlorophenyl)-4,4-dimethylcyclohex-1-en-1-yl]methyl}piperazin-1-yl)-N-[(4-{[(3R)-1-(methylsulfonyl)pyrrolidin-3-yl]amino}-3-nitrophenyl)sulfonyl]-2-(1H-pyrrolo[2,3-b]pyridin-5-yloxy)benzamide], below 0.01 nM; that for `CC1(C)CCCC(CN2CCN(c3ccc(C(=O)NS(=O)(=O)c4ccc(NCC5CCOCC5)c([N+](=O)[O-])c4)c(Oc4cnc5[nH]ccc5c4)c3)CC2)=C1c1ccc(Cl)cc1` [Example 150, 4-(4-{[2-(4-chlorophenyl)-3,3-dimethylcyclohex-1-en-1-yl]methyl}piperazin-1-yl)-N-({3-nitro-4-[(tetrahydro-2H-pyran-4-ylmethyl)amino]phenyl}sulfonyl)-2-(1H-pyrrolo[2,3-b]pyridin-5-yloxy)benzamide], below 0.01 nM. In the case of `CC1(C)CCC(CN2CCN(c3ccc(C(=O)NS(=O)(=O)c4ccc(NC5CN(C(CF)CF)C5)c([N+](=O)[O-])c4)c(Oc4cnc5[nH]ccc5c4)c3)CC2)=C(c2ccc(Cl)cc2)C1` [Example 151, 4-(4-{[2-(4-chlorophenyl)-4,4-dimethylcyclohex-1-en-1-yl]methyl}piperazin-1-yl)-N-{[4-({1-[2-fluoro-1-(fluoromethyl)ethyl]azetidin-3-yl}amino)-3-nitrophenyl]sulfonyl}-2-(1H-pyrrolo[2,3-b]pyridin-5-yloxy)benzamide], the Ki came to 0.017 nM.

Regarding `CC1(C)CCC(CN2CCN(c3ccc(C(=O)NS(=O)(=O)c4ccc(NCC5CCN(S(C)(=O)=O)C5)c([N+](=O)[O-])c4)c(Oc4cnc5[nH]ccc5c4)c3)CC2)=C(c2ccc(Cl)cc2)C1` (stereo not drawn) [Example 152, 4-(4-{[2-(4-chlorophenyl)-4,4-dimethylcyclohex-1-en-1-yl]methyl}piperazin-1-yl)-N-{[4-({[1-(methylsulfonyl)pyrrolidin-3-yl]methyl}amino)-3-nitrophenyl]sulfonyl}-2-(1H-pyrrolo[2,3-b]pyridin-5-yloxy)benzamide], the inhibition constant Ki is below 0.01 nM. Turning to `CC(=O)N1CCC(CNc2ccc(S(=O)(=O)NC(=O)c3ccc(N4CCN(CC5=C(c6ccc(Cl)cc6)CC(C)(C)CC5)CC4)cc3Oc3cnc4[nH]ccc4c3)cc2[N+](=O)[O-])C1` (stereo not drawn) [Example 153, N-[(4-{[(1-acetylpyrrolidin-3-yl)methyl]amino}-3-nitrophenyl)sulfonyl]-4-(4-{[2-(4-chlorophenyl)-4,4-dimethylcyclohex-1-en-1-yl]methyl}piperazin-1-yl)-2-(1H-pyrrolo[2,3-b]pyridin-5-yloxy)benzamide], the Ki is below 0.01 nM.

Regarding `CC(=O)N1CC[C@@H](Nc2ccc(S(=O)(=O)NC(=O)c3ccc(N4CCN(CC5=C(c6ccc(Cl)cc6)CC(C)(C)CC5)CC4)cc3Oc3cnc4[nH]ccc4c3)cc2[N+](=O)[O-])C1` [Example 154, N-[(4-{[(3R)-1-acetylpyrrolidin-3-yl]amino}-3-nitrophenyl)sulfonyl]-4-(4-{[2-(4-chlorophenyl)-4,4-dimethylcyclohex-1-en-1-yl]methyl}piperazin-1-yl)-2-(1H-pyrrolo[2,3-b]pyridin-5-yloxy)benzamide], the Ki was below 0.01 nM. Turning to `COCC(C)(C)CNc1ccc(S(=O)(=O)NC(=O)c2ccc(N3CCN(CC4=C(c5ccc(Cl)cc5)CC(C)(C)CC4)CC3)cc2Oc2cnc3[nH]ccc3c2)cc1[N+](=O)[O-]` [Example 155, 4-(4-{[2-(4-chlorophenyl)-4,4-dimethylcyclohex-1-en-1-yl]methyl}piperazin-1-yl)-N-({4-[(3-methoxy-2,2-dimethylpropyl)amino]-3-nitrophenyl}sulfonyl)-2-(1H-pyrrolo[2,3-b]pyridin-5-yloxy)benzamide], the Ki worked out at 0.059 nM.

With `CC1(C)CCC(CN2CCN(c3ccc(C(=O)NS(=O)(=O)c4ccc(NC[C@@H]5CC[C@@H](O)C5)c([N+](=O)[O-])c4)c(Oc4cnc5[nH]ccc5c4)c3)CC2)=C(c2ccc(Cl)cc2)C1` [Example 156, 4-(4-{[2-(4-chlorophenyl)-4,4-dimethylcyclohex-1-en-1-yl]methyl}piperazin-1-yl)-N-{[4-({[(1R,3R)-3-hydroxycyclopentyl]methyl}amino)-3-nitrophenyl]sulfonyl}-2-(1H-pyrrolo[2,3-b]pyridin-5-yloxy)benzamide], the Ki is below 0.01 nM.
